Tests used:
[1] = system: control sera (pooled serum of ten healthy LUMC hospital workers; commercial negative donor pooled serum from the Dutch bloodbank); type: binding, human; parameters: Binding of Control serum LUMC to linear peptides / Binding of Control serum Blood-bank to linear peptides / Binding of Control serum LUMC to looped peptides / Binding of Control Serum Blood-Bank to Looped peptides / Binding of Control serum LUMC to linear peptides of the protein M of SARS-CoV Urbani / Binding of Control serum Blood-bank to linear peptides of the protein M of SARS-CoV Urbani / Binding of Control serum LUMC to looped peptides of the protein M of SARS-CoV Urbani / Binding of Control Serum Blood-Bank to Looped peptides of the protein M of SARS-CoV Urbani: unit not given here
[2] = system: antibodies in sera from SARS patients (sera 1a, 1b, 2, 6, 37, 62, London, SARS-yellow, SARS-green); type: binding, human; parameters: Binding of serum 6 to linear peptides of protein X1 of SARS-CoV Urbani / Binding of serum 37 to linear peptides of protein X1 of SARS-CoV Urbani / Binding of serum 6 to looped/cyclic peptide (PEPSCAN-ELISA) / Binding of serum 37 to looped/cyclic peptide (PEPSCAN-ELISA) / Binding of serum 37 to looped/cyclic peptides of protein X1 of SARS-CoV Urbani / Binding of serum 6 to linear peptides of protein X2 / Binding of serum 37 to linear peptides of protein X2 / Binding of serum 37 to looped/cyclic peptides of protein X2 of SARS-CoV Urbani / Binding of serum 6 to linear peptides of protein M of SARS-CoV Urbani / Binding of serum 37 to linear peptides of protein M of SARS-CoV Urbani / Binding of serum 6 to looped/cyclic peptides of protein M of SARS-CoV Urbani / Binding of serum 37 to looped/cyclic peptides of protein M of SARS-CoV Urbani / Binding of serum 6 to linear peptides of protein X3 of SARS-CoV Urbani / Binding of serum 37 to linear peptides of protein X3 of SARS-CoV Urbani / Binding of serum 37 to looped/cyclic peptides of protein X3 of SARS-CoV Urbani / Binding of serum 6 to linear peptides of protein X4 of SARS-CoV Urbani / Binding of serum 37 to linear peptides of protein X4 of SARS-CoV Urbani / Binding of serum 37 to looped/cyclic peptides of protein X4 of SARS-CoV Urbani / Binding of serum 6 to linear peptides of protein X5 of SARS-CoV Urbani / Binding of serum 37 to linear peptides of protein X5 of SARS-CoV Urbani / Binding of serum 37 to looped/cyclic peptides of protein X5 of SARS-CoV Urbani / Binding of serum 6 to linear peptides of protein N of SARS-CoV Urbani / Binding of serum 37 to linear peptides of protein N of SARS-CoV Urbani / Binding of serum 6 to linear peptide (PEPSCAN-ELISA) / Binding of serum 1a to looped/cyclic peptides of protein N of SARS-CoV Urbani / Binding of serum 1b to looped/cyclic peptides of protein N of SARS-CoV Urbani / Binding of serum 2 to looped/cyclic peptides of protein N of SARS-CoV Urbani / Binding of serum 6 to looped/cyclic peptides of protein N of SARS-CoV Urbani / Binding of serum 37 to looped/cyclic peptides of protein N of SARS-CoV Urbani / Binding of serum 62 to looped/cyclic peptides of protein N of SARS-CoV Urbani / Binding of serum London to looped/cyclic peptides of protein N of SARS-CoV Urbani / Binding of serum SARS-green to looped/cyclic peptides of protein N of SARS-CoV Urbani: unit not given here
[3] = system: rabbit serum obtained by immunizing a rabbit with the SARS-CoV strain Frankfurt 1; type: binding; parameters: Binding of a rabbit serum to linear peptides / Binding of a rabbit serum to looped peptides / Rabbit serum linear peptides / Rabbit serum looped peptides / Binding of a rabbit serum to linear peptides of protein N of SARS-CoV Urbani (Rabbit serum linear peptides) / Binding of a rabbit serum to looped/cyclic peptides of protein N of SARS-CoV Urbani (Rabbit serum looped peptides): unit not given here

LTLIVFTSCELYHYQ
0.4: Binding of serum SARS-green to looped/cyclic peptides of protein X4 of SARS-CoV Urbani [2] | Binding of serum SARS-yellow to linear peptides of protein X4 of SARS-CoV Urbani [2]
0.8: Binding of Control serum LUMC to looped peptides [1] | Binding of serum 1a to looped/cyclic peptides of protein X4 of SARS-CoV Urbani [2] | Binding of serum 62 to linear peptides of protein X4 of SARS-CoV Urbani [2]
0.7: Binding of Control Serum Blood-Bank to Looped peptides [1] | Binding of Control serum Blood-bank to linear peptides [1] | Binding of Control serum LUMC to linear peptides [1] | Binding of serum 1a to linear peptides of protein X4 of SARS-CoV Urbani [2] | Binding of serum 1b to looped/cyclic peptides of protein X4 of SARS-CoV Urbani [2] | Binding of serum 2 to looped/cyclic peptides of protein X4 of SARS-CoV Urbani [2] | Binding of serum 37 to linear peptides of protein X4 of SARS-CoV Urbani [2] | Binding of serum 37 to looped/cyclic peptides of protein X4 of SARS-CoV Urbani [2] | Binding of serum 62 to looped/cyclic peptides of protein X4 of SARS-CoV Urbani [2] | Binding of serum London to linear peptides of protein X4 of SARS-CoV Urbani [2] | Binding of serum SARS-green to linear peptides of protein X4 of SARS-CoV Urbani [2] | Binding of serum SARS-yellow to looped/cyclic peptides of protein X4 of SARS-CoV Urbani [2]
0.3: Binding of serum London to looped/cyclic peptides of protein X4 of SARS-CoV Urbani [2] | Rabbit serum looped peptides [3]
0.6: Binding of serum 1b to linear peptides of protein X4 of SARS-CoV Urbani [2]
0.5: Binding of serum 2 to linear peptides of protein X4 of SARS-CoV Urbani [2] | Binding of serum 6 to linear peptides of protein X4 of SARS-CoV Urbani [2] | Binding of serum 6 to looped/cyclic peptides of protein X4 of SARS-CoV Urbani [2] | Rabbit serum linear peptides [3]

LVAAGMEAQFLYLYA
0.7: Binding of serum 1b to linear peptides of protein X1 of SARS-CoV Urbani [2]
0.1: Binding of a rabbit serum to linear peptides [3]
0.6: Binding of Control serum LUMC to looped peptides [1] | Binding of serum 2 to linear peptides of protein X1 of SARS-CoV Urbani [2] | Binding of serum 37 to linear peptides of protein X1 of SARS-CoV Urbani [2] | Binding of serum SARS-yellow to looped/cyclic peptide (PEPSCAN-ELISA) [2] | Binding of a rabbit serum to looped peptides [3]
0.8: Binding of serum 1a to linear peptides of protein X1 of SARS-CoV Urbani [2]
0.4: Binding of Control serum Blood-bank to linear peptides [1] | Binding of serum 1b to looped/cyclic peptide (PEPSCAN-ELISA) [2] | Binding of serum 6 to linear peptides of protein X1 of SARS-CoV Urbani [2]
0.5: Binding of Control Serum Blood-Bank to Looped peptides [1] | Binding of serum 1a to looped/cyclic peptide (PEPSCAN-ELISA) [2] | Binding of serum 2 to looped/cyclic peptide (PEPSCAN-ELISA) [2] | Binding of serum 37 to looped/cyclic peptide (PEPSCAN-ELISA) [2] | Binding of serum 62 to linear peptides of protein X1 of SARS-CoV Urbani [2] | Binding of serum 62 to looped/cyclic peptide (PEPSCAN-ELISA) [2]
1.1: Binding of Control serum LUMC to linear peptides [1]
0.2: Binding of serum London to linear peptides of protein X1 of SARS-CoV Urbani [2] | Binding of serum London to looped/cyclic peptide (PEPSCAN-ELISA) [2] | Binding of serum SARS-green to linear peptides of protein X1 of SARS-CoV Urbani [2]
0.3: Binding of serum 6 to looped/cyclic peptide (PEPSCAN-ELISA) [2] | Binding of serum SARS-green to looped/cyclic peptide (PEPSCAN-ELISA) [2] | Binding of serum SARS-yellow to linear peptides of protein X1 of SARS-CoV Urbani [2]

LVDFQVTIAEILIII
0.3: Binding of serum 6 to looped/cyclic peptides of protein X3 of SARS-CoV Urbani [2] | Rabbit serum linear peptides [3] | Rabbit serum looped peptides [3]
0.7: Binding of Control serum LUMC to looped peptides of the protein X3 of SARS-CoV Urbani [1] | Binding of serum 1a to looped/cyclic peptides of protein X3 of SARS-CoV Urbani [2] | Binding of serum 2 to linear peptides of protein X3 of SARS-CoV Urbani [2] | Binding of serum SARS-yellow to linear peptides of protein X3 of SARS-CoV Urbani [2]
0.4: Binding of serum 1b to looped/cyclic peptides of protein X3 of SARS-CoV Urbani [2] | Binding of serum SARS-green to linear peptides of protein X3 of SARS-CoV Urbani [2]
0.9: Binding of Control serum LUMC to linear peptides of the protein X3 of SARS-CoV Urbani [1]
0.6: Binding of Control Serum Blood-Bank to Looped peptides of the protein X3 of SARS-CoV Urbani [1] | Binding of serum 1b to linear peptides of protein X3 of SARS-CoV Urbani [2] | Binding of serum 2 to looped/cyclic peptides of protein X3 of SARS-CoV Urbani [2] | Binding of serum 37 to linear peptides of protein X3 of SARS-CoV Urbani [2] | Binding of serum 62 to linear peptides of protein X3 of SARS-CoV Urbani [2] | Binding of serum 62 to looped/cyclic peptides of protein X3 of SARS-CoV Urbani [2] | Binding of serum London to linear peptides of protein X3 of SARS-CoV Urbani [2] | Binding of serum SARS-yellow to looped/cyclic peptides of protein X3 of SARS-CoV Urbani [2]
0.2: Binding of serum London to looped/cyclic peptides of protein X3 of SARS-CoV Urbani [2] | Binding of serum SARS-green to looped/cyclic peptides of protein X3 of SARS-CoV Urbani [2]
0.5: Binding of serum 6 to linear peptides of protein X3 of SARS-CoV Urbani [2] | Binding of serum 37 to looped/cyclic peptides of protein X3 of SARS-CoV Urbani [2]
0.8: Binding of Control serum Blood-bank to linear peptides of the protein X3 of SARS-CoV Urbani [1] | Binding of serum 1a to linear peptides of protein X3 of SARS-CoV Urbani [2]
